Assays:
bamyardgrass = assay: Test B flood test barnyardgrass; format: in vivo, Echinochloa crus-galli
Method in brief: (§1)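 Each value is a visual injury score relative to controls, with 10 meaning complete control and 0 no effect. Evaluation took place twelve to sixteen days after the 2-leaf-stage plants were treated and kept in the greenhouse.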

surinam grass = assay: Test B pre/postemergence surinam grass; format: in vivo, Brachiaria decumbens
Method in brief: (§2)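 Response is a visual 0-to-10 score relative to untreated plants, where 0 means no effect and 10 means complete control, taken twelve to sixteen days after application. Treatments went onto soil at planting and onto foliage of 1- to 4-leaf plants, using a surfactant-containing non-phytotoxic solvent.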

wheat = assay: Test B pre/postemergence wheat; format: in vivo, Triticum aestivum
Method in brief: as §2

pigweed = assay: Test B pre/postemergence pigweed; format: in vivo, Amaranthus retroflexus
Method in brief: as §2

sugar beet = assay: Test B pre/postemergence sugar beet; format: in vivo, Beta vulgaris
Method in brief: as §2

corn = assay: Test B pre/postemergence corn; format: in vivo, Zea mays
Method in brief: as §2

rape = assay: Test B pre/postemergence rape; format: in vivo, Brassica napus
Method in brief: as §2

crabgrass = assay: Test B pre/postemergence crabgrass; format: in vivo, Digitaria sanguinalis
Method in brief: as §2

soybean = assay: Test B pre/postemergence soybean; format: in vivo, Glycine max
Method in brief: as §2

bedstraw = assay: Test B pre/postemergence bedstraw; format: in vivo, Galium aparine
Method in brief: as §2

smallflower flatsedge = assay: Test B flood test smallflower flatsedge; format: in vivo, Cyperus difformis
Method in brief: as §1

wild oat = assay: Test B pre/postemergence wild oat; format: in vivo, Avena fatua
Method in brief: as §2

blackgrass = assay: Test B pre/postemergence blackgrass; format: in vivo, Alopecurus myosuroides
Method in brief: as §2

cocklebur = assay: Test B pre/postemergence cocklebur; format: in vivo, Xanthium strumarium
Method in brief: as §2

velvetleaf = assay: Test B pre/postemergence velvetleaf; format: in vivo, Abutilon theophrasti
Method in brief: as §2

purple nutsedge = assay: Test B pre/postemergence purple nutsedge; format: in vivo, Cyperus rotundus
Method in brief: as §2

[1] = Rate 62 g/ha, headed Pre-emergence (flood test species), scale 0 to 10 (0 no effect, 10 complete control)
[2] = Rate 125 g/ha, Pre-emergence, flood test species, scale 0 to 10 where 0 is no effect and 10 is complete control
[3] = Rate 250 g/ha, Pre-emergence, flood-test species, scale 0 to 10, 0 is no effect, 10 is complete control
[4] = Rate 500 g/ha, Pre-emergence, flood test species, scale 0 to 10 (0 no effect, 10 complete control)
[5] = Postemergence, Rate 125 g/ha, scale 0 to 10, 0 is no effect, 10 is complete control
[6] = Preemergence, Rate 62 g/ha, scale of 0 to 10 where 0 is no effect and 10 is complete control
[7] = Preemergence, Rate 250 g/ha, scale of 0 to 10 where 0 is no effect and 10 is complete control
[8] = Preemergence, Rate 500 g/ha, scale of 0 to 10 where 0 is no effect and 10 is complete control
[9] = Rate 62 g/ha, Postemergence, scale 0 to 10 (0 no effect, 10 complete control)
[10] = Rate 250 g/ha, Postemergence, scale of 0 to 10 where 0 is no effect and 10 is complete control
[11] = Rate 500 g/ha, Postemergence, scale 0 to 10, 0 no effect, 10 complete control

CC(C)N(C(=O)n1oc(=O)n(-c2ccc3ccccc3c2)c1=O)c1ccc(F)cc1F [Compound 335]
Barnyardgrass plant response rating (bamyardgrass; [1]): 0 | Barnyardgrass plant response rating (bamyardgrass; [2]): 0 | Barnyardgrass plant response rating (bamyardgrass; [3]): 0 | Barnyardgrass plant response rating (bamyardgrass; [4]): 4 | Plant response rating, B. signalgrass (surinam grass; [5]): 0 | B. signalgrass plant response rating (surinam grass; [6]): 0 | B. signalgrass plant response rating (0 to 10 scale, 0 is no effect, 10 is complete control) (surinam grass; Preemergence, Rate 125 g/ha): 0 | B. signalgrass plant response rating (surinam grass; [7]): 0 | B. signalgrass plant response rating (surinam grass; [8]): 0 | B. signalgrass plant response rating (surinam grass; [9]): 0 | Plant response rating, B. signalgrass (surinam grass; [10]): 0 | Plant response rating, B. signalgrass (surinam grass; [11]): 0 | Plant response rating, Wheat (wheat; [5]): 0 | Wheat plant response rating (wheat; [6]): 0 | Wheat plant response rating (0 to 10 scale) (wheat; Preemergence, Rate 125 g/ha): 0 | Wheat plant response rating (wheat; [7]): 0 | Wheat plant response rating (wheat; [8]): 0 | Wheat plant response rating (wheat; [9]): 0 | Plant response rating, Wheat (wheat; [11]): 0 | Plant response rating, Redroot pigweed (pigweed; [5]): 0 | Redroot pigweed plant response rating (pigweed; [6]): 0 | Redroot pigweed plant response rating (0 to 10 scale) (pigweed; Preemergence, Rate 125 g/ha): 0 | Redroot pigweed plant response rating (pigweed; [7]): 0 | Redroot pigweed plant response rating (pigweed; [8]): 0 | Redroot pigweed plant response rating (pigweed; [9]): 0 | Plant response rating, Redroot pigweed (pigweed; [11]): 0 | Plant response rating, Sugarbeets (sugar beet; [5]): 0 | Sugarbeets plant response rating (sugar beet; [6]): 0 | Sugarbeets plant response rating (0 to 10 scale) (sugar beet; Preemergence, Rate 125 g/ha): 0 | Sugarbeets plant response rating (sugar beet; [7]): 0 | Sugarbeets plant response rating (sugar beet; [8]): 0 | Sugarbeets plant response rating (sugar beet; [9]): 0 | Plant response rating, Sugarbeets (sugar beet; [11]): 0 | Plant response rating, Corn (corn; [5]): 0 | Corn plant response rating (corn; [6]): 0 | Corn plant response rating (0 to 10 scale) (corn; Preemergence, Rate 125 g/ha): 0 | Corn plant response rating (corn; [7]): 0 | Corn plant response rating (corn; [8]): 0 | Corn plant response rating (corn; [9]): 0 | Plant response rating, Corn (corn; [11]): 0 | Plant response rating, Rape (rape; [5]): 0 | Rape plant response rating (rape; [6]): 0 | Rape plant response rating (0 to 10 scale) (rape; Preemergence, Rate 125 g/ha): 0 | Rape plant response rating (rape; [7]): 0 | Rape plant response rating (rape; [8]): 0 | Rape plant response rating (rape; [9]): 0 | Plant response rating, Rape (rape; [11]): 0 | Plant response rating, Crabgrass (crabgrass; [5]): 0 | Crabgrass plant response rating (crabgrass; [6]): 0 | Crabgrass plant response rating (0 to 10 scale) (crabgrass; Preemergence, Rate 125 g/ha): 0 | Crabgrass plant response rating (crabgrass; [7]): 2 | Crabgrass plant response rating (crabgrass; [8]): 2 | Crabgrass plant response rating (crabgrass; [9]): 0 | Plant response rating, Crabgrass (crabgrass; [11]): 0 | Plant response rating, Soybean (soybean; [5]): 2 | Soybean plant response rating (soybean; [6]): 0 | Soybean plant response rating (0 to 10 scale) (soybean; Preemergence, Rate 125 g/ha): 0 | Soybean plant response rating (soybean; [7]): 0 | Soybean plant response rating (soybean; [8]): 0 | Soybean plant response rating (soybean; [9]): 1 | Plant response rating, Soybean (soybean; [11]): 2 | Plant response rating, Bedstraw (bedstraw; [5]): 0 | Bedstraw plant response rating (bedstraw; [6]): 0 | Bedstraw plant response rating (0 to 10 scale) (bedstraw; Preemergence, Rate 125 g/ha): 0 | Bedstraw plant response rating (bedstraw; [7]): 0 | Bedstraw plant response rating (bedstraw; [9]): 0 | Plant response rating, Bedstraw (bedstraw; [10]): 0 | Plant response rating, Bedstraw (bedstraw; [11]): 4 | S. Flatsedge plant response rating (smallflower flatsedge; [1]): 0 | S. Flatsedge plant response rating (smallflower flatsedge; [2]): 0 | S. Flatsedge plant response rating (smallflower flatsedge; [3]): 0 | S. Flatsedge plant response rating (smallflower flatsedge; [4]): 0 | Plant response rating, Wild oats (wild oat; [5]): 0 | Wild oats plant response rating (wild oat; [6]): 0 | Wild oats plant response rating (0 to 10 scale) (wild oat; Preemergence, Rate 125 g/ha): 0 | Wild oats plant response rating (wild oat; [7]): 0 | Wild oats plant response rating (wild oat; [8]): 0 | Wild oats plant response rating (wild oat; [9]): 0 | Plant response rating, Wild oats (wild oat; [11]): 0 | Plant response rating, Blackgrass (blackgrass; [5]): 0 | Blackgrass plant response rating (blackgrass; [6]): 0 | Blackgrass plant response rating (0 to 10 scale) (blackgrass; Preemergence, Rate 125 g/ha): 0 | Blackgrass plant response rating (blackgrass; [7]): 0 | Blackgrass plant response rating (blackgrass; [8]): 0 | Blackgrass plant response rating (blackgrass; [9]): 0 | Plant response rating, Blackgrass (blackgrass; [10]): 0 | Plant response rating, Blackgrass (blackgrass; [11]): 0 | Plant response rating, Cocklebur (cocklebur; [5]): 0 | Cocklebur plant response rating (cocklebur; [6]): 0 | Cocklebur plant response rating (0 to 10 scale) (cocklebur; Preemergence, Rate 125 g/ha): 0 | Cocklebur plant response rating (cocklebur; [7]): 0 | Cocklebur plant response rating (cocklebur; [8]): 0 | Cocklebur plant response rating (cocklebur; [9]): 0 | Plant response rating, Cocklebur (cocklebur; [11]): 0 | Plant response rating, Velvetleaf (velvetleaf; [5]): 0 | Velvetleaf plant response rating (velvetleaf; [6]): 0 | Velvetleaf plant response rating (0 to 10 scale) (velvetleaf; Preemergence, Rate 125 g/ha): 0 | Velvetleaf plant response rating (velvetleaf; [7]): 0 | Velvetleaf plant response rating (velvetleaf; [8]): 0 | Velvetleaf plant response rating (velvetleaf; [9]): 0 | Plant response rating, Velvetleaf (velvetleaf; [11]): 0 | Plant response rating, Nutsedge (purple nutsedge; [5]): 0 | Nutsedge plant response rating (purple nutsedge; [6]): 0 | Nutsedge plant response rating (0 to 10 scale) (purple nutsedge; Preemergence, Rate 125 g/ha): 0 | Nutsedge plant response rating (purple nutsedge; [7]): 0 | Nutsedge plant response rating (purple nutsedge; [8]): 0 | Nutsedge plant response rating (purple nutsedge; [9]): 0 | Plant response rating, Nutsedge (purple nutsedge; [11]): 0

Source: patent publication US6737383B1, “Herbicidal oxadiazolidines” (priority 1999, dated 2004)
